From patent US12576253B2, “Drug delivery device with intravesical tolerability” (priority 2009, dated 2026) come the findings set out here.

The conditions of this data set: two six-day rabbits (4 mg device), spinal cord puncture at L7 just prior to euthanasia.

For the compound `CCN(CC)CC(=O)Nc1c(C)cccc1C` [lidocaine], the “lidocaine in cerebrospinal fluid” value is reported as “not detected”.
